The values below are quoted from earlier work in patent publication US20130220225A1, “BAITING METHOD AND COMPOSITION” (priority 2008, published 2013).

Read-outs that look alike come from different tables or passages of the source.

One may read the LD50 as the dose at which mortality reaches 50%.

Data set [1] concerns Cat (Fellis libyca domestica). Particulars: Oral.
A further data set has as its system Coyote (Canis latrans). Particulars: Oral.
The next data set relates to Stoats (Mustela erminea). The settings on record: Oral.
The next data set concerns Bobcat (Lynx rufus). Particulars: Oral.
A further data set relates to Fox (kit) (Vulpes velox). Particulars: Oral.
The test system of data set [2] is Ferret (Mustela putoris furo). Particulars: Oral.
In data set [3] the test system is Mallard (duck) (Anas platyrhrynchos). The settings on record: Oral.
For data set [4], the system named is Eagle (Aquila chrysaetos). The settings on record: Oral.
For data set [5], the system named is Tammar wallaby (Macropus eugenii). The settings on record: Oral.
For data set [6], the system named is Badger (Nth Am.) (Taxidea taxus). The settings on record: Oral.
Data set [7] has as its system Blackbird (red-wing) (Agelaius phoenicus). Particulars: Oral.
The subject of another data set is Raccoon (Procyon lotor). Particulars: Oral.
The test system of data set [8] is Rat (male) (Rattus norvegicus). The settings on record: Oral.
Data set [9] deals with Magpie (black-billed) (Pica pica). The settings on record: Oral.
Data set [10] concerns Crow (Corvus brachyrhynchos). The settings on record: Oral.
For data set [11], the system named is Starling (Sturnus vulgaris). The settings on record: Oral.
Data set [12] relates to Quail (Coturnix coturnix). The settings on record: Oral.
Data set [13] relates to Skunk (Mephitis mephitis). Particulars: Oral.
Data set [14] deals with Brushtail Possum (Trichosaurus vulpecula). Particulars: Oral.
In data set [15] the test system is Guinea pig (female) (Cavellio porcinus). Particulars: Oral.

Regarding `CCC(=O)c1ccc(N)cc1` [p-aminopropiophenone], the LD50 was 5.6 mg/kg in data set [1]; 5.6 mg/kg with Coyote (Canis latrans); 9.3 mg/kg in the data set on Stoats (Mustela erminea); 10 mg/kg in the data set on Bobcat (Lynx rufus); 14.1 mg/kg in the data set with Fox (kit) (Vulpes velox); 29 mg/kg in [2]. Further, the LD50 in data set [3] was 38 mg/kg; in data set [4], greater than 50 mg/kg; in data set [5], 89 mg/kg; in data set [6] it was 100 mg/kg; in data set [7], 133 mg/kg; with Raccoon (Procyon lotor) it was 142 mg/kg. Further, the LD50 in the data set on Mouse (Mus domesticus) (Mouse (female), I.V.) is 200 mg/kg; in the data set on Mouse (Mus domesticus) (Mouse (female), Oral), >5,000 mg kg^−1; in the data set with Mouse (Mus domesticus) (Mouse (male), I.V.) it was 145 mg/kg; in the data set with Mouse (Mus domesticus) (Mouse (sex not given), Oral), 233 mg/kg; in data set [8], 177 mg/kg; in data set [9], 178 mg/kg. The LD50 is greater than 178 mg/kg in data set [10]; greater than 316 mg/kg in data set [11]; greater than 316 mg/kg in data set [12]; greater than 400 mg/kg in [13]; 500 mg/kg in [14]; 1020 mg/kg in [15].
